For one data set, the system named is arrhythmia in rats. In words: arrhythmia test carried out in rats according to Zetler and Strubelt (ED125, ED150). The class given is in vivo. To be noted: Rattus norvegicus, iv.
In data set [1] the test system is aconitine arrhythmia on rats. In words: preventive aconitine arrhythmia test on rats. The class given is in vivo, rats of Wistar strain. The note with it: for arrhythmia appearance time: ± S.E., 30 min monitoring; for responders at 4 mg/kg: read-out: positive cases, 4.0 mg/kg i.v., 2 min before aconitine. On the procedure: The antiarrhythmic activity of the compounds of the Formula I was compared in a preventive aconitine arrhythmia test on rats as follows:
rats of Wistar strain weighing 200 to 250 g. were narcotized i.p. with 1.25 g./kg. of urethane and their ECG was registered by a Hellige equipment by II standard limb head.
Arrhythmia was induced by an i.v. infusion of 30 /ug/kg. aconitine nitrate whereafter the ECG was continuously monitored for 30 minutes.
Those cases were considered positive, where within 30 minutes after the aconitine infusion not a single phase of the arrhythmia occurred.
In control animals pretreated i.v. with a 0.9% sodium chloride solution (0.1 ml./100 g.) (n=20) the arrhythmogenic activity of the aconitine nitrate appeared after 2.88±0.32 minutes.
Per cent values of the positive cases, average time of the appearance of the arrhythmia-when the induced arrhythmia appeared within 30 minutes and toxicity values are shown.

A further data set deals with white mice. Kind of data set: acute intravenous toxicity, method of Litchfield and Wilcoxon. The note with it: i.v. The class given is in vivo. On the procedure: (§1) The acute intravenous (i.v.) toxicity values of the testcompounds was determined by the method of Litchfield and Wilcoxon and as test-animals white mice of both sexes were used (J. of Pharmacol. 1949, 96, 99.).

Test in data set [2]: as above
The class given is in vivo. The note with it: mouse, in vivo, iv, mice. The method, then:
as §1

Where [3] appears, read: Rattus norvegicus, iv, 0.5 h, no arrhythmia within 30 min = positive.

Method for arrhythmia in rats: In cases of compounds having outstanding antiarrhythmic activity ED125 and ED150 values were calculated in arrhythmia test carried out in rats according to Zetler and Strubelt (Arzneim.-Forsch.) Drug.

In the data set with arrhythmia in rats, `CCc1nc2ccccc2c(=O)n1CCCNC(=O)C1=CC(C)(C)NC1(C)C` [I/72] showed an ED125 of 1.1 mg/kg and an ED150 of 1.7 mg/kg. In data set [1] (4.0 mg/kg i.v.), this compound came in with an arrhythmia appearance time of 30 min. Moreover, the responders at 4 mg/kg in data set [1] (setting [3]) came to 100%. The LD50 (usually the dose expected to kill half of the subjects tested) in the data set with white mice was determined as 13 mg/kg.
For `CC1(C)C=C(C(=O)NCCCNCc2cccs2)C(C)(C)N1` [I/44], in data set [1] (Rattus norvegicus, iv, 0.5 h, read-out: positive cases, 6.5 mg/kg i.v., 2 min before aconitine, no arrhythmia within 30 min = positive), the responders at 6.5 mg/kg turned out to be 100%.
Turning to `CCc1nc2ccccc2c(=O)n1CCCNC(=O)C1CC(C)(C)NC1(C)C` (stereo not shown) [I/74], in the data set on arrhythmia in rats, the ED125 is 1.9 mg/kg and the ED150 is 2.7 mg/kg. Further, the arrhythmia appearance time in data set [1] (4.0 mg/kg i.v.) is on record as 30 min. Moreover, in data set [1] (setting [3]), the responders at 4 mg/kg was 100%. In the data set on white mice, this compound came in with an LD50 of 22 mg/kg.
In the data set on arrhythmia in rats, `CC1(C)C=C(C(=O)NCCCNC(=O)Cc2cccs2)C(C)(C)N1` [I/19] returned an ED125 of 2 mg/kg and an ED150 of 3.1 mg/kg. In addition, the arrhythmia appearance time in data set [1] (7.0 mg/kg i.v.) is recorded as 27.5 ± 2.5 min. The responders at 7 mg/kg in data set [1] (Rattus norvegicus, iv, 0.5 h, read-out: positive cases, 7.0 mg/kg i.v., 2 min before aconitine, no arrhythmia within 30 min = positive) amounted to 80%. Also, the LD50 in the data set with white mice is on record as 71 mg/kg.
For the compound `CC1(C)C=C(C(=O)NCC(O)CN2C(=O)c3ccccc3C2=O)C(C)(C)N1` (stereo not shown) [I/61], in the data set with arrhythmia in rats, the ED125 worked out at 1.9 mg/kg and the ED150 is 3 mg/kg. Further, the arrhythmia appearance time in data set [1] (4.0 mg/kg i.v.) is 30 min. Besides, in data set [1] (setting [3]), the responders at 4 mg/kg is 100%. Moreover, the LD50 in the data set with white mice is 28 mg/kg.
As to `CC1(C)C=C(C(=O)NCCNCc2cccs2)C(C)(C)N1` [I/36], in the data set on arrhythmia in rats, the ED125 amounted to 4.5 mg/kg and the ED150 was 7.6 mg/kg. The arrhythmia appearance time in data set [1] (4.0 mg/kg i.v.) is reported as 15.9 ± 0.3 min. The responders at 4 mg/kg in data set [1] (setting [3]) was found to be 70%. Besides, the 50% lethal dose (LD50) in data set [2] is 49 mg/kg.
In the data set on arrhythmia in rats, `CC=Cc1ccc(OCC(=O)NCCNC(=O)C2=CC(C)(C)NC2(C)C)c(OC)c1` [I/21] returned an ED125 of 2.4 mg/kg and an ED150 of 4.1 mg/kg. The same compound showed an arrhythmia appearance time in data set [1] (4.0 mg/kg i.v.) of more than 30 min. Further, the responders at 4 mg/kg in data set [1] (setting [3]) is 100%. In addition, the LD50 in data set [2] is 18 mg/kg.
In the case of `CC1(C)CC(C(=O)NCCCNCc2cccs2)C(C)(C)N1` (stereo not shown) [I/50], in the data set on arrhythmia in rats, the ED125 was 2.7 mg/kg and the ED150 came to 4.2 mg/kg. The same compound displayed an arrhythmia appearance time in data set [1] (4.3 mg/kg i.v.) of 30 min. For the same compound, the responders at 4.3 mg/kg in data set [1] (Rattus norvegicus, iv, 0.5 h, read-out: positive cases, 4.3 mg/kg i.v., 2 min before aconitine, no arrhythmia within 30 min = positive) was 100%. The compound further displayed an LD50 in the data set with white mice of 43 mg/kg.
In the data set with arrhythmia in rats, `CC1(C)CC(C(=O)NCCCN2C(=O)c3ccccc3C2=O)C(C)(C)N1` (stereo not shown) [I/62] gave an ED125 of 2.6 mg/kg and an ED150 of 4.5 mg/kg. The same compound came in with an arrhythmia appearance time in data set [1] (4.0 mg/kg i.v.) of 30 min. The responders at 4 mg/kg in data set [1] (setting [3]) was 100%. Besides, the LD50 with white mice was 22 mg/kg.
On the same counts, the results for `CC1(C)C=C(C(=O)NCCCNCc2ccsc2)C(C)(C)N1` [I/53] are 3.4 mg/kg, 5.5 mg/kg, 30 min, 100% and 28 mg/kg.
In the data set with arrhythmia in rats, `CC1(C)C=C(C(=O)NCCN2C(=O)c3ccccc3C2=O)C(C)(C)N1` [I/59] came in with an ED125 of 4.2 mg/kg and an ED150 of 7.9 mg/kg. The arrhythmia appearance time in data set [1] (5.5 mg/kg i.v.) is reported as 30 min. Besides, the responders at 5.5 mg/kg in data set [1] (Rattus norvegicus, iv, 0.5 h, read-out: positive cases, 5.5 mg/kg i.v., 2 min before aconitine, no arrhythmia within 30 min = positive) came to 100%. This compound registered an LD50 in the data set with white mice of 55 mg/kg.
As for `CC1(C)C=C(C(=O)NCCCN2C(=O)C3CC=CCC3C2=O)C(C)(C)N1` (stereo not shown) [I/58], the arrhythmia appearance time in data set [1] (11.3 mg/kg i.v.) is 13.1 ± 2.5 min. Moreover, in data set [1] (Rattus norvegicus, iv, 0.5 h, read-out: positive cases, 11.3 mg/kg i.v., 2 min before aconitine, no arrhythmia within 30 min = positive), the responders at 11.3 mg/kg came out at 50%. The compound further registered an LD50 in the data set on white mice of 113 mg/kg.
With `CC1(C)C=C(C(=O)NCCCCNCc2cccs2)C(C)(C)N1` [I/49], in the data set with arrhythmia in rats, the ED125 was found to be 2.3 mg/kg and the ED150 amounted to 4.7 mg/kg. The compound further came in with an arrhythmia appearance time in data set [1] (2.8 mg/kg i.v.) of 10.0 min. Further, the responders at 2.8 mg/kg in data set [1] (Rattus norvegicus, iv, 0.5 h, read-out: positive cases, 2.8 mg/kg i.v., 2 min before aconitine, no arrhythmia within 30 min = positive) is 90%. This compound registered an LD50 with white mice of 28 mg/kg.
In the data set on arrhythmia in rats, `CC1(C)C=C(C(=O)NCCCNC(=O)CSc2ccccc2)C(C)(C)N1` [I/12] showed an ED125 of 4.6 mg/kg and an ED150 of 6.95 mg/kg. This compound also gave an arrhythmia appearance time in data set [1] (4.0 mg/kg i.v.) of 28.5 min. Further, in data set [1] (setting [3]), the responders at 4 mg/kg stood at 90%. Besides, in the data set with white mice, the LD50 came out at 38 mg/kg.
For `CCc1nc2ccccc2c(=O)n1CCNC(=O)C1=CC(C)(C)NC1(C)C` [I/71] the same measures were 3.8 mg/kg, 10.5 mg/kg, 30 min, 100% and 48 mg/kg.
With `C=CCc1cc(C)ccc1OCC(=O)NCCCNC(=O)C1=CC(C)(C)NC1(C)C` [I/11], in the data set with arrhythmia in rats, the ED125 turned out to be 1.4 mg/kg and the ED150 was found to be 2.4 mg/kg. The compound also came in with an arrhythmia appearance time in data set [1] (1.4 mg/kg i.v.) of 20.1 ± 2.5 min. Also, in data set [1] (Rattus norvegicus, iv, 0.5 h, read-out: positive cases, 1.4 mg/kg i.v., 2 min before aconitine, no arrhythmia within 30 min = positive), the responders at 1.4 mg/kg is 80%. For the same compound, the 50% lethal dose (LD50) in the data set on white mice is 14 mg/kg.
Regarding `COc1cc(C(=O)NCCCNC(=O)C2=CC(C)(C)NC2(C)C)cc(OC)c1OC` [I/2], in the data set with arrhythmia in rats, the ED125 turned out to be 7.6 mg/kg and the ED150 was 12.3 mg/kg. In addition, in data set [1] (12.0 mg/kg i.v.), the arrhythmia appearance time came to 16.7 ± 1.7 min. Besides, the responders at 12 mg/kg in data set [1] (Rattus norvegicus, iv, 0.5 h, read-out: positive cases, 12.0 mg/kg i.v., 2 min before aconitine, no arrhythmia within 30 min = positive) was determined as 70%. In addition, in the data set on white mice, the LD50 stood at 119 mg/kg.
In the data set with arrhythmia in rats, `CC1(C)CC(C(=O)NCCCNCc2ccsc2)C(C)(C)N1` (stereo not shown) [I/54] displayed an ED125 of 6.9 mg/kg and an ED150 of 13.2 mg/kg. In data set [1] (4.0 mg/kg i.v.), this compound showed an arrhythmia appearance time of 5.2 ± 0.8 min. The responders at 4 mg/kg in data set [1] (setting [3]) was 70%. In the data set on white mice, the median lethal dose (LD50) is 19 mg/kg.
For `CC1(C)C=C(C(=O)NCCCNCc2ccccc2)C(C)(C)N1` [I/38] the same measures were 2.2 mg/kg, 3.6 mg/kg, 27.5 min, 90% and 26 mg/kg.
`CC1(C)C=C(C(=O)NCCCNC(=O)c2ccccc2C(=O)O)C(C)(C)N1` [I/68, N-(2,2,5,5-tetramethyl-3-pyrroline-3-carbonyl)-N'-(2-carboxybenzoyl)-1,3-diaminopropane] returned an arrhythmia appearance time in data set [1] (41.9 mg/kg i.v.) of 4.6 ± 0.7 min. For the same compound, the responders at 41.9 mg/kg in data set [1] (Rattus norvegicus, iv, 0.5 h, read-out: positive cases, 41.9 mg/kg i.v., 2 min before aconitine, no arrhythmia within 30 min = positive) was 40%. Further, the LD50 in the data set on white mice is reported as 419 mg/kg.
Take `Cc1nc2ccccc2c(=O)n1CCCNC(=O)C1=CC(C)(C)NC1(C)C` [I/70, 2-Methyl-3-[3-(2,2,5,5-tetramethyl-3-pyrroline-3-carbonyl-amino)-propyl]-quinazoline-4(3H)-one]: in the data set with arrhythmia in rats, the ED125 worked out at 2.5 mg/kg and the ED150 is 4.5 mg/kg. In addition, the arrhythmia appearance time in data set [1] (4.0 mg/kg i.v.) is reported as 30 min. For the same compound, the responders at 4 mg/kg in data set [1] (setting [3]) was 100%. The LD50 with white mice is given as 31 mg/kg.
In the data set on arrhythmia in rats, `CC1(C)CC(C(=O)NCCCNCc2ccc(C(F)(F)F)cc2)C(C)(C)N1` (stereo not shown) [I/52] displayed an ED125 of 2.1 mg/kg and an ED150 of 2.9 mg/kg. In data set [1] (4.0 mg/kg i.v.), the arrhythmia appearance time is listed as 7.3 min. For the same compound, in data set [1] (setting [3]), the responders at 4 mg/kg is 90%. Also, the LD50 in the data set with white mice was 39 mg/kg.
In the data set on arrhythmia in rats, `C=CCc1ccc(OCC(=O)NCCCNC(=O)C2=CC(C)(C)NC2(C)C)c(OC)c1` [I/9, N-(2-methoxy-4-allyl)-phenoxy-acetyl-N'-(2,2,5,5-tetramethyl-3-pyrroline-3-carbonyl)-1,3-propylene-diamine] came in with an ED125 of 0.7 mg/kg and an ED150 of 1.4 mg/kg. For the same compound, the arrhythmia appearance time in data set [1] (1.9 mg/kg i.v.) was more than 30 min. In data set [1] (Rattus norvegicus, iv, 0.5 h, read-out: positive cases, 1.9 mg/kg i.v., 2 min before aconitine, no arrhythmia within 30 min = positive), the responders at 1.9 mg/kg was determined as 100%. In the data set with white mice, the LD50 is listed as 19 mg/kg.
In the data set on arrhythmia in rats, `CC1(C)C=C(C(=O)NCCCN2C(=O)c3ccccc3C2=O)C(C)(C)N1` [I/60] gave an ED125 of 1.4 mg/kg and an ED150 of 2.6 mg/kg. In addition, in data set [1] (2.3 mg/kg i.v.), the arrhythmia appearance time is reported as 26.0 min. Besides, the responders at 2.3 mg/kg in data set [1] (Rattus norvegicus, iv, 0.5 h, read-out: positive cases, 2.3 mg/kg i.v., 2 min before aconitine, no arrhythmia within 30 min = positive) was determined as 90%. In the data set with white mice, this compound registered a 50% lethal dose (LD50) of 23 mg/kg.

The values are drawn from patent US5028609A, “Alkyl diamine derivatives” (Alkaloida Vegyeszeti Gyar, priority 1983, dated 1991).
